Tested on: HT-29 cells
Test: Cellular uptake of FITC-BSA by CLSM in HT-29 cells
Format: cell-based
Conditions: 37° C., 3 h, P/T ratio 1/3 by weight
Procedure: Cellular Uptake of Protein-Loaded Telodendrimer Nanoparticles. Green fluorescent FITC-BSA molecules were used to probe the intracellular trafficking of proteins without and with telodendrimer nanoparticles. HT-29 colon cancer cells were incubated with free FITC-BSA and FITC-BSA-loaded telodendrimer nanoparticles, and were imaged by confocal laser scanning microscopy (CLSM). […] Only a small amount of the FITC-BSA molecules loaded in the nanoparticles of the telodendrimers containing four guanidine groups at a P/T ratio of 1/3 by weight could be delivered to the cellular interiors (green fluorescence in FIG. 6b). […] The poor intracellular protein delivery efficiency of the telodendrimers containing four guanidine groups may restrict their applications for intracellular delivery, however, this endows them with the potential to serve as nanocarriers for systemic delivery of proteins such as insulin. […]
Cellular Uptake. The cellular uptake and intracellular trafficking of the protein-incorporated nanoparticles were determined by fluorescence microscopy. […] The slides were mounted with cover slips and cells were imaged with a […] FV1000 laser scanning confocal fluorescence microscope.

## FITC-BSA: Fluorescein isothiocyanate (FITC) labeled bovine serum albumin, fluorescent model protein
  cellular uptake of FITC-BSA: could hardly enter the cells spontaneously
